Measurements reported in ChEMBL document CHEMBL5108037, “Cyclic Peptide Screening Methods for Preclinical Drug Discovery” (J Med Chem, 2022).
pIC50, pKd: −log10 of the molar value. Values belong to the compound of their own block, whether it stands above or below them. Starred links: 1 amine or outer side, 2 acyl side, 3 side chain; linkers in the order of their positions; H or OH if unused. Positions of bridges follow the written chain, without caps; N, C: chain ends. Non-standard residues stand in square brackets, D forms with d. Residues, ends and D or L forms follow the SMILES beside them. mXylylene = c1cc(C[*:1])cc(C[*:2])c1; CH2CH2 = C(C[*:2])[*:1]; βAla = NCCC(=O)O

How the values were obtained:
[1] = Inhibition of NDM-1 (unknown origin); parameters: species or system Bacteria
[2] = Inhibition of HIF-1alpha / HIF-1beta (unknown origin) protein-protein interaction by ELISA assay; parameters: species or system Homo sapiens
[3] = Inhibition of recombinant His-tagged HIF-1 expressed in human U2OS cells measured after 90 mins by ELISA assay; format: cell-based
[4] = Antiproliferative activity against human LNCaP-95 cells assessed as cell growth inhibition measured after 24 hrs by CellTiter-Glo assay; format: functional, cell-based; conditions: LNCaP-95, 24 h
[5] = Antiproliferative activity against human LNCaP-abl cells assessed as cell growth inhibition measured after 24 hrs by CellTiter-Glo assay; format: functional, cell-based
TCF4-CTNNB1 complex = target: T1, TCF4-CTNNB1 complex (Homo sapiens, UniProt P35222); assay: Inhibition of FITC-labeled Tcf4 (unknown origin) / full length beta-catenin (1 to 781 residues) (unknown origin) protein-protein interaction measured after 1 hr by fluorescence polarization assay; format: protein-complex assay
T1 sequence (P35222 whole entry): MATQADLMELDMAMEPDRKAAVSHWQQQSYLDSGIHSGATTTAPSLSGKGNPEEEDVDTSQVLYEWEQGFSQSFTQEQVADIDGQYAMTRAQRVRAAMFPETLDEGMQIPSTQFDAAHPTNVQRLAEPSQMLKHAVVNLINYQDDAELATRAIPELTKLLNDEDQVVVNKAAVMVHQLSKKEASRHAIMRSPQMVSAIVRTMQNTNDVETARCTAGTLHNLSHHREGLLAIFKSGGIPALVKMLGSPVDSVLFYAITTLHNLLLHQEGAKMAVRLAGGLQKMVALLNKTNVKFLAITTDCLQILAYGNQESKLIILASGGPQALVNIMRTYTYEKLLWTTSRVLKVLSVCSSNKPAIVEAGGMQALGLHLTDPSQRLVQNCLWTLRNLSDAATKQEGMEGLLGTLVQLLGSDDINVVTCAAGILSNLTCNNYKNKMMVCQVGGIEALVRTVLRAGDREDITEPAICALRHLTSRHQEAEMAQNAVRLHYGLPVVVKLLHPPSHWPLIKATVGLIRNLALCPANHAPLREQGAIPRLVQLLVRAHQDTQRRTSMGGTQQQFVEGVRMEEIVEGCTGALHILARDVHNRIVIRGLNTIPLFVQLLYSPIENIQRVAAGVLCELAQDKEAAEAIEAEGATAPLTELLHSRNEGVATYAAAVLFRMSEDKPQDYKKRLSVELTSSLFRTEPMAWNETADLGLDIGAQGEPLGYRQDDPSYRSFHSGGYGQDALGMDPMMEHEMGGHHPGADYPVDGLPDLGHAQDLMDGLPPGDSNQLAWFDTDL
T1 sequence (P15884 whole entry): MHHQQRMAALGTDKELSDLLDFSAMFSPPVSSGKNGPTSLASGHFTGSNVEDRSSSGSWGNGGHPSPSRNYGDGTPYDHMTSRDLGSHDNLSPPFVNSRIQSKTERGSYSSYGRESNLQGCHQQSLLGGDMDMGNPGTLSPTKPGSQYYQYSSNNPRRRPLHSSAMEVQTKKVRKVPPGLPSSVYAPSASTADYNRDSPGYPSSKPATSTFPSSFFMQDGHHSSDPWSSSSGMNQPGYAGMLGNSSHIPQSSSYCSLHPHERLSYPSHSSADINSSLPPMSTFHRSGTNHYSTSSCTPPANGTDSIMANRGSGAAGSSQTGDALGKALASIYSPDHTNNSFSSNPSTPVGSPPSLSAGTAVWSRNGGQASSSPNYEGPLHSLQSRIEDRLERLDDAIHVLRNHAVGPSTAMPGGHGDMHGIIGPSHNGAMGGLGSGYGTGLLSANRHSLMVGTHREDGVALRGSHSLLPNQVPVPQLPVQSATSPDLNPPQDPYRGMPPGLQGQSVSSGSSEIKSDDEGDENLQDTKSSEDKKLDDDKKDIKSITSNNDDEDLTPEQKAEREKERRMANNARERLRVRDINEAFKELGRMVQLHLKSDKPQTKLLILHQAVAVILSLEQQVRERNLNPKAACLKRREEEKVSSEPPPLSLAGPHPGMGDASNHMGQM

Sonic hedgehog protein = Sonic hedgehog protein (Homo sapiens, UniProt Q15465); assay: Binding affinity to SHH (unknown origin) assessed as dissociation constant by calorimetric analysis
[6] = Inhibition of TEV protease using Cy5-ENLYFQGK(QSY21)-NH2 as substrate incubated for 1 hr by fluorescence based analysis; parameters: species or system Tobacco etch virus

Sonic hedgehog protein, sequence (Q15465 24-197 limits assumed): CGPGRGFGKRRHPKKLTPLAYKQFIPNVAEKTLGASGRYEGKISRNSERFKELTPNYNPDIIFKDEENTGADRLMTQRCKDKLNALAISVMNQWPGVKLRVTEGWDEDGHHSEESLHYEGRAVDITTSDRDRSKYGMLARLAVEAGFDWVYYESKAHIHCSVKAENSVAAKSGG

pIC50 [1]: 4.22
Compound: C[C@@H](CS)C(=O)N1CCC[C@@H]1C(=O)O

pIC50 [1]: 5.92
Compound: CC[C@H](C)[C@@H]1NC(=O)[C@@H]2CCCN2C(=O)[C@H](CC(=O)O)NC(=O)[C@H](CCCNC(=N)N)NC(=O)[C@H](CCCNC(=N)N)NC(=O)[C@H](CC(C)C)NC(=O)[C@H](CS)NC(=O)[C@@H]2CCCN2C1=O (cyclo(CLRRDPIP))

pIC50 [2]: 5.89
pIC50 [3]: 4.72
Compound: CC(C)C[C@@H]1NC(=O)[C@H](CS)NC(=O)[C@H](Cc2ccc(O)cc2)NC(=O)[C@H](C(C)C)NC(=O)[C@H](Cc2ccccc2)NC(=O)[C@H](CC(C)C)NC1=O

Compound: COc1ccc([C@H](C)N2CC(=O)N(CCCOC(C)C)CC(=O)N(c3cc(OC)cc(OC)c3)CC(=O)N(CCc3ccccc3Oc3ccccc3)CC(=O)N[C@H](C)C(=O)N([C@@H](C)c3ccc(OC)cc3)CC2=O)cc1
pIC50 [4]: 6.11
pIC50 [5]: 6.71

pIC50 (TCF4-CTNNB1 complex): 5.32
Compound: CC(C)C[C@@H]1NC(=O)[C@@H]2CSCc3cccc(c3)CSC[C@H](NC(=O)[C@H](CC(N)=O)NC(=O)[C@H](CCCNC(=N)N)NC(=O)[C@H]([C@@H](C)O)NC(=O)[C@H](C(C)C)NC(=O)CCNC(=O)CCNC(=O)[C@H](Cc3ccccc3)NC(=O)[C@H](C(C)C)NC(=O)[C@H](CC(C)C)NC1=O)C(=O)N[C@@H](C(C)C)C(=O)N1CCC[C@H]1C(=O)N1CCC[C@H]1C(=O)N[C@@H](CC(=O)O)C(=O)N2 (cyclo(CLLVF[βAla][βAla]VTRNCVPPD); linker 1-12 via mXylylene)

pKd (Sonic hedgehog protein): 6.26
Compound: CSCC[C@@H]1NC(=O)[C@H](C)NC(=O)[C@H](CCC(=O)O)NC(=O)[C@@H](NC(=O)[C@@H]2CCCN2C(=O)[C@H](CO)NC(=O)[C@H](CO)NC(=O)CN)Cc2ccc(cc2)OCCSC[C@@H](C(=O)N[C@H](C(=O)N[C@@H](CC(=O)O)C(=O)N[C@H](C(=O)NCC(=O)O)[C@@H](C)O)[C@@H](C)O)NC(=O)[C@H](CCSC)NC(=O)[C@H](CC(=O)O)NC1=O (H-GSSPYEAMDMCTDTG-OH; linker 5-11 via CH2CH2)

Compound: CSCC[C@@H]1NC(=O)[C@H](Cc2ccc(O)cc2)NC(=O)[C@@H](NC(=O)[C@H](C)N)CSC/C(=N\OCC(=O)NC/C=C/S(C)(=O)=O)CSC[C@@H](C(=O)NCC(=O)O)NC(=O)[C@H](CC(C)C)NC(=O)[C@H](Cc2ccc(O)cc2)NC(=O)[C@H](CC(C)C)NC(=O)[C@@H]2CCCN2C(=O)[C@H](CCC(=O)O)NC(=O)[C@H](CCC(N)=O)NC1=O
pIC50 [6]: 6.14
